Results as given in patent US8748624B2, “Picolinamido-propanoic acid derivatives useful as glucagon receptor antagonists” (Janssen Pharmaceutica NV, priority 2011, dated 2014).

Biological target: human GCGR (Homo sapiens (Human), UniProt P47871)
Assay: Cellular functional assay, cAMP readout (glucagon-stimulated cAMP in HEK293 cells expressing human GCGR)
Type: cell-based
Conditions: hGluc-1 HEK cells, LANCE TR-FRET, IC50 converted to Ki, average if tested more than once
Procedure: IC50 Values in Cellular Functional Assays: cAMP Readout
Full-length human GCGR (Accession Number: NM000160) subcloned into pcDNA3.1 was stably transfected into HEK293 cells (hGluc-1 HEK) and maintained under G418 selection (500 μg/mL). Cell cultures were maintained in DMEM/F12 media supplemented with 10% FBS and 1% GlutaMax. Glucagon stimulated cAMP was quantified using LANCE technology as per manufacturer instructions. On the day of the experiment, spent media was removed and cells were washed with Hank's Buffered Saline solution (HBSS) and cells were harvested with non-enzymatic cell dissociation solution, then washed once with HBSS. Cells were re-suspended in stimulation buffer at a concentration of 0.83×10^6 cells/ml and cAMP detection antibody was added. 6 μl/well of this solution was then dispensed in a 384 well plate (cell density 5000 cells/well). Test compound was serially diluted in DMSO and 50 nl were dispensed on top of the cell solution and allowed to incubate for 30 minutes. 6 μl of a 2× glucagon solution (final concentration in assay […]) was then added and the reaction was terminated after 5 minutes with the addition of detection mix. The mixture was incubated, protected from light for 1.5 h. cAMP levels were quantified by TR-FRET in an EnVision instrument against a known standard. IC50's were generated by using a non-linear regression macro driven in Excel and converted to K, values.

Sequence of human GCGR (P47871 26-477): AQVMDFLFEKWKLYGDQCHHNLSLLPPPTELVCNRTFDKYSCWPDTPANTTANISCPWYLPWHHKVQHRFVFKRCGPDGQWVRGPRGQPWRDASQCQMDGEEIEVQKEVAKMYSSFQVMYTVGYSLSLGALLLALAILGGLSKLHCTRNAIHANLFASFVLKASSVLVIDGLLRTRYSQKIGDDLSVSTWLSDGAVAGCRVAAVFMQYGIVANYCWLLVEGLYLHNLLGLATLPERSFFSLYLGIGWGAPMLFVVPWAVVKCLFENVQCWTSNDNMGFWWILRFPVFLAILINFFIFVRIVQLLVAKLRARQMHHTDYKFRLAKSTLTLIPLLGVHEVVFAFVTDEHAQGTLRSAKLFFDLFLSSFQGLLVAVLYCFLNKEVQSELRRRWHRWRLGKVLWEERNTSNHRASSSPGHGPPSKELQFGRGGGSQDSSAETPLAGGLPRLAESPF

| Compound | Ki |
| --- | --- |
| O=C(O)CCNC(=O)c1ccc(-c2cc(C(F)(F)F)ccc2CNc2ccc(-c3ccc(Cl)cc3Cl)c(C(F)(F)F)c2)cn1 [Compound 122, 3-(5-(2-(((2′,4′-dichloro-2-(trifluoromethyl)-[1,1′-biphenyl]-4-yl)amino)methyl)-5-(trifluoromethyl)phenyl)picolinamido)propanoic acid] | 85 nM |
| N#Cc1cc(NCc2ccc(Cl)cc2-c2ccc(C(=O)NCCC(=O)O)nc2)ccc1-c1ccc(F)c(C(F)(F)F)c1 [Compound 100, 3-(5-(5-chloro-2-(((2-cyano-4′-fluoro-3′-(trifluoromethyl)-[1,1′-biphenyl]-4-yl)amino)methyl)phenyl)picolinamido)propanoic acid] | 135 nM |
| COc1ccc(CNc2ccc(-c3ccc(C(F)(F)F)cc3)cc2)c(-c2ccc(C(=O)NCCC(=O)O)nc2)c1 [Compound 47, 3-(5-(5-methoxy-2-(((4′-(trifluoromethyl)-[1,1′-biphenyl]-4-yl)amino)methyl)phenyl)picolinamido)propanoic acid] | > 20000 nM |
| COc1cc(C(F)(F)F)cc(-c2ccc(C(=O)NCCC(=O)O)nc2)c1CNc1ccc(-c2ccc(C(F)(F)F)cc2Cl)cc1 [Compound 161, 3-(5-(2-(((2′-chloro-4′-(trifluoromethyl)-[1,1′-biphenyl]-4-yl)amino)methyl)-3-methoxy-5-(trifluoromethyl)phenyl)picolinamido)propanoic acid] | 38.7 nM |
| COc1cc(C(F)(F)F)cc(-c2ccc(C(=O)NCCC(=O)O)nc2)c1CNc1cc(Cl)c(-c2ccc(Cl)cc2)c(Cl)c1 [Compound 160, 3-(5-(3-methoxy-2-(((2,4′,6-trichloro-[1,1′-biphenyl]-4-yl)amino)methyl)-5-(trifluoromethyl)phenyl)picolinamido)propanoic acid] | 650 nM |
| COc1ccc(CNc2ccc(-c3ccc(Cl)cc3)cc2)c(-c2ccc(C(=O)NCCC(=O)O)nc2)c1 [Compound 45, 3-(5-(2-(((4′-chloro-[1,1′-biphenyl]-4-yl)amino)methyl)-5-methoxyphenyl)picolinamido)propanoic acid] | > 20000 nM |
| O=C(O)CCNC(=O)c1ccc(-c2cc(C(F)(F)F)ccc2CNc2ccc(-c3ccc(Cl)cc3)c(C(F)(F)F)c2)cn1 [Compound 123, 3-(5-(2-(((4′-chloro-2-(trifluoromethyl)-[1,1′-biphenyl]-4-yl)amino)methyl)-5-(trifluoromethyl)phenyl)picolinamido)propanoic acid] | 110 nM |
| Cc1cc(Cl)ccc1-c1ccc(NCc2c(-c3ccc(C(=O)NCCC(=O)O)nc3)cc(C(F)(F)F)cc2C2CC2)cc1Cl [Compound 178, 3-(5-(3-cyclopropyl-2-(((2,4′-dichloro-2′-methyl-[1,1′-biphenyl]-4-yl)amino)methyl)-5-(trifluoromethyl)phenyl)picolinamido)propanoic acid] | 6.3 nM |
| Cc1cc(C(F)(F)F)ccc1-c1ccc(NCc2c(-c3ccccc3)cc(C(F)(F)F)cc2-c2ccc(C(=O)NCCC(=O)O)nc2)cc1Cl [Compound 179, 3-(5-(2-(((2-chloro-2′-methyl-4′-(trifluoromethyl)-[1,1′-biphenyl]-4-yl)amino)methyl)-5-(trifluoromethyl)-[1,1′-biphenyl]-3-yl)picolinamido)propanoic acid] | 19.6 nM |
| O=C(O)CCNC(=O)c1ccc(-c2cc(C(F)(F)F)ccc2CNc2ccc(-c3ccc(F)c(C(F)(F)F)c3)c(C(F)(F)F)c2)cn1 [Compound 121, 3-(5-(2-(((4′-fluoro-2,3′-bis(trifluoromethyl)-[1,1′-biphenyl]-4-yl)amino)methyl)-5-(trifluoromethyl)phenyl)picolinamido)propanoic acid] | 100 nM |
| Cc1cc(C(F)(F)F)ccc1-c1ccc(NCc2c(-c3ccc(C(=O)NCCC(=O)O)nc3)cc(C(F)(F)F)cc2C2CC2)cc1Cl [Compound 177, 3-(5-(2-(((2-chloro-2′-methyl-4′-(trifluoromethyl)-[1,1′-biphenyl]-4-yl)amino)methyl)-3-cyclopropyl-5-(trifluoromethyl)phenyl)picolinamido)propanoic acid] | 5.3 nM |
| O=C(O)CCNC(=O)c1ccc(-c2cc(Cl)ccc2CNc2ccc(-c3ccc(F)cc3F)cc2)cn1 [Compound 18, 3-(5-(5-chloro-2-(((2′,4′-difluoro-[1,1′-biphenyl]-4-yl)amino)methyl)phenyl)picolinamido)propanoic acid] | 280 nM |
| O=C(O)CCNC(=O)c1ccc(-c2cc(C(F)(F)F)ccc2CNc2ccc(-c3ccc(C(F)(F)F)cc3Cl)c(C(F)(F)F)c2)cn1 [Compound 128, 3-(5-(2-(((2′-chloro-2,4′-bis(trifluoromethyl)-[1,1′-biphenyl]-4-yl)amino)methyl)-5-(trifluoromethyl)phenyl)picolinamido)propanoic acid] | 45.8 nM |
| N#Cc1cc(NCc2ccc(Cl)cc2-c2ccc(C(=O)NCCC(=O)O)nc2)ccc1-c1ccc(Cl)cc1Cl [Compound 99, 3-(5-(5-chloro-2-(((2′,4′-dichloro-2-cyano-[1,1′-biphenyl]-4-yl)amino)methyl)phenyl)picolinamido)propanoic acid] | 65.4 nM |
| COc1cc(C(F)(F)F)cc(-c2ccc(C(=O)NCCC(=O)O)nc2)c1CNc1ccc(-c2ccc(Cl)cc2)c(Cl)c1 [Compound 162, 3-(5-(2-(((2,4′-dichloro-[1,1′-biphenyl]-4-yl)amino)methyl)-3-methoxy-5-(trifluoromethyl)phenyl)picolinamido)propanoic acid] | 46.9 nM |
| N#Cc1cc(NCc2ccc(Cl)cc2-c2ccc(C(=O)NCCC(=O)O)nc2)ccc1-c1cccc(C(F)(F)F)c1Cl [Compound 101, 3-(5-(5-chloro-2-(((2′-chloro-2-cyano-3′-(trifluoromethyl)-[1,1′-biphenyl]-4-yl)amino)methyl)phenyl)picolinamido)propanoic acid] | 95 nM |
| O=C(O)CCNC(=O)c1ccc(-c2cc(C(F)(F)F)ccc2CNc2ccc(-c3ccc(Cl)cc3F)c(C(F)(F)F)c2)cn1 [Compound 126, 3-(5-(2-(((4′-chloro-2′-fluoro-2-(trifluoromethyl)-[1,1′-biphenyl]-4-yl)amino)methyl)-5-(trifluoromethyl)phenyl)picolinamido)propanoic acid] | > 5200 nM |
| Cc1cc(NCc2c(-c3ccc(C(=O)NCCC(=O)O)nc3)cc(C(F)(F)F)cc2C(F)(F)F)ccc1-c1ccc(Cl)cc1 [Compound 86, 3-(5-(2-(((4′-chloro-2-methyl-[1,1′-biphenyl]-4-yl)amino)methyl)-3,5-bis(trifluoromethyl)phenyl)picolinamido)propanoic acid] | 35 nM |
| O=C(O)CCNC(=O)c1ccc(-c2cc(C(F)(F)F)ccc2CNc2ccc(-c3ccc(C(F)(F)F)cc3)c(C(F)(F)F)c2)cn1 [Compound 127, 3-(5-(2-(((2,4′-bis(trifluoromethyl)-[1,1′-biphenyl]-4-yl)amino)methyl)-5-(trifluoromethyl)phenyl)picolinamido)propanoic acid] | 70 nM |
| Cc1cc(Cl)ccc1-c1ccc(NCc2ccc(C(F)(F)F)cc2-c2ccc(C(=O)NCCC(=O)O)nc2)cc1C(F)(F)F [Compound 119, 3-(5-(2-(((4′-chloro-2′-methyl-2-(trifluoromethyl)-[1,1′-biphenyl]-4-yl)amino)methyl)-5-(trifluoromethyl)phenyl)picolinamido)propanoic acid] | 60 nM |
